Measured values published in patent US12521329B2, “Antimicrobial mixture containing 4-(3-ethoxy-4-hydroxyphenyl) butan-2-one, and cosmetic composition containing same” (L'OREAL, priority 2017, dated 2026).

Assays:
Experiment in all cases: MIC / synergy (FIC index) microplate growth test, optical density 620 nm
Format in all cases: cell-based
[1] = system: Staphylococcus aureus ATCC 6538; settings: Example 1
Procedure: The microbial strain Staphylococcus aureus ATCC 6538 and a double-concentration nutrient broth liquid culture medium were used.
(§1) A 96-well microplate at an incubation temperature of 32.5° C. is used.
(§2) The incubation time of the microplate for the abovementioned two strains is: • from 18 to 24 h aerobically for Candida albicans and Staphylococcus aureus. • from 24 hours to 48 hours aerobically for Aspergillus niger Tests
(§3) A 10% (weight/volume) stock solution was prepared by mixing 1 g of compound in 9 ml of aqueous 1‰ agar solution. Successive dilutions were made with the 1‰ agar solution.
(§4) 50 μl of each of the daughter solutions obtained containing compound A or B are added to the microplate wells. 100 μl of Sabouraud liquid nutrient broth inoculated at double concentration with the Candida albicans strain and 50 μl of aqueous 1‰ agar solution are also added thereto.
as §4, with “and 50 μl of each of the daughter solutions obtained containing compound” for “or”, “strain” for “strain and 50 μl of aqueous 1‰ agar solution”
(§5) A positive microbial growth control was also prepared. The positive microbial growth control corresponds to the mixture of 100 μl of aqueous 1‰ agar solution with 100 μl of Sabouraud liquid nutrient broth inoculated at double concentration with the Candida albicans strain in the absence of compounds A and B.
(§6) An absorbance control was performed in parallel on compounds A and B alone. This control corresponds to 100 μl of double concentration sterile Sabouraud liquid nutrient broth+100 μl of double concentration compound A or B.
(§7) In the three cases (absorbance control, growth control and test), the final volume present in each of the microplate wells is 200 μl.
(§8) In the two cases (test and control), the inoculum represents the concentration of the Candida albicans strain present in the final volume of the wells (200 μl) and is between 2 and 6×10^5 cfu/ml of Candida albicans.
(§9) The minimum inhibitory concentration (MIC) of each compound A and B alone and in combination was determined in a known manner by means of optical density measurements at a wavelength of 620 nm.
The test as described above (tests, absorbance control and growth control) was performed again to test the combination A+B on the Staphylococcus aureus strain and on the Aspergillus niger strain as appropriate.

[2] = system: Candida albicans ATCC 10231
Procedure: The microbial strain Candida albicans ATCC 10231 and a double-concentration Sabouraud broth liquid culture medium were used.
as §1, §2, §3, §4
as §4, with “and 50 μl of each of the daughter solutions obtained containing compound” for “or”, “strain” for “strain and 50 μl of aqueous 1‰ agar solution”
as §5, §6, §7, §8, §9

[3] = system: Aspergillus niger ATCC 6275; settings: Example 5
Text: FIC Index=(MIC of A with B/MIC of A)+(MIC of B with A/MIC of B) with: • MIC of A with B: minimum concentration of product A in the combination A+B which makes it possible to obtain an inhibitory effect; • MIC of B with A: minimum concentration of product B in the combination A+B which makes it possible to obtain an inhibitory effect; • MIC of A: minimum inhibitory concentration of product A alone; • MIC of B: minimum inhibitory concentration of product B alone. […] A 96-well microplate at an incubation temperature of 32.5° C. is used. The incubation time of the microplate for the abovementioned two strains is: • from 18 to 24 h aerobically for Candida albicans and Staphylococcus aureus. • from 24 hours to 48 hours aerobically for Aspergillus niger Tests […] Successive dilutions were made with the 1‰ agar solution. 50 μl of each of the daughter solutions obtained containing compound A or B are added to the microplate wells. 100 μl of Sabouraud liquid nutrient broth inoculated at double concentration with the Candida albicans strain and 50 μl of aqueous 1‰ agar solution are also added thereto. 50 μl of each of the daughter solutions obtained containing compound A and 50 μl of each of the daughter solutions obtained containing compound B are added to the microplate wells. 100 μl of Sabouraud liquid nutrient broth inoculated at double concentration with the Candida albicans strain are also added thereto. A positive microbial growth control was also prepared. […] An absorbance control was performed in parallel on compounds A and B alone. This control corresponds to 100 μl of double concentration sterile Sabouraud liquid nutrient broth+100 μl of double concentration compound A or B. […] In the two cases (test and control), the inoculum represents the concentration of the Candida albicans strain present in the final volume of the wells (200 μl) and is between 2 and 6×10^5 cfu/ml of Candida albicans. […] The test as described above (tests, absorbance control and growth control) was performed again to test the combination A+B on the Staphylococcus aureus strain and on the Aspergillus niger strain as appropriate.

**Q.** How did the microbial growth percentage ([1]; 0.0625 weight % A alone) turn out when `CCOc1cc(CCC(C)=O)ccc1O` [A, 4-(3-ethoxy-4-hydroxyphenyl)butan-2-one] was run?
**A.** Its microbial growth percentage is 87%.

**Q.** And the microbial growth percentage ([1]; 0.125 weight % A alone)?
**A.** The microbial growth percentage was 77%.

**Q.** And the microbial growth percentage ([1]; 0.25 weight % A alone)?
**A.** Its microbial growth percentage is 78%.

**Q.** What about the microbial growth percentage ([1]; 0.5 weight % A alone) of the same compound?
**A.** The microbial growth percentage was 4%.

**Q.** And the “% MIC of A alone” value ([1]; growth <= 20%, or even < 25%)?
**A.** The value was 0.5%.

**Q.** And the microbial growth percentage ([2]; Example 1, 0.025 weight % A alone)?
**A.** Its microbial growth percentage is 84%.

**Q.** What about the microbial growth percentage ([2]; Example 1, 0.05 weight % A alone) of the same compound?
**A.** Its microbial growth percentage is 71%.

**Q.** What about the microbial growth percentage ([2]; Example 1, 0.1 weight % A alone) of the same compound?
**A.** The microbial growth percentage was 48%.

**Q.** And the microbial growth percentage ([2]; Example 1, 0.2 weight % A alone)?
**A.** Its microbial growth percentage is 10%.

**Q.** And the “% MIC of A alone” value ([2]; Example 1, growth <= 20%, or even < 25%)?
**A.** Its value is 0.2%.

**Q.** What about the microbial growth percentage ([2]; Example 2, 0.025 weight % A alone) of the same compound?
**A.** The microbial growth percentage was 52%.

**Q.** What about the microbial growth percentage ([2]; Example 2, 0.05 weight % A alone) of the same compound?
**A.** Its microbial growth percentage is 31%.

**Q.** What about the microbial growth percentage ([2]; Example 2, 0.1 weight % A alone) of the same compound?
**A.** Its microbial growth percentage is 18%.

**Q.** And the “% MIC A” value ([2]; Example 2, A alone)?
**A.** Its value is 0.1%.

**Q.** And the “% MIC of A alone” value ([2]; Example 3)?
**A.** The value was 0.2%.

**Q.** What about the microbial growth percentage ([2]; Example 3, 0.025 weight % A alone) of the same compound?
**A.** Its microbial growth percentage is 71%.

**Q.** What about the microbial growth percentage ([2]; Example 3, 0.05 weight % A alone) of the same compound?
**A.** The microbial growth percentage was 65%.

**Q.** And the microbial growth percentage ([2]; Example 3, 0.1 weight % A alone)?
**A.** The microbial growth percentage was 44%.

**Q.** What about the microbial growth percentage ([2]; Example 3, 0.2 weight % A alone) of the same compound?
**A.** The microbial growth percentage was 4%.

**Q.** And the “% MIC of A alone” value ([2]; Example 4)?
**A.** Its value is 0.2%.

**Q.** And the microbial growth percentage ([2]; Example 4, 0.025 weight % A alone)?
**A.** Its microbial growth percentage is 83%.

**Q.** What about the microbial growth percentage ([2]; Example 4, 0.05 weight % A alone) of the same compound?
**A.** Its microbial growth percentage is 71%.

**Q.** And the microbial growth percentage ([2]; Example 4, 0.1 weight % A alone)?
**A.** Its microbial growth percentage is 46%.

**Q.** And the microbial growth percentage ([2]; Example 4, 0.2 weight % A alone)?
**A.** Its microbial growth percentage is 6%.

**Q.** What about the “% MIC of A alone” value ([2]; Example 5) of the same compound?
**A.** Its value is 0.1%.

**Q.** What about the microbial growth percentage ([2]; Example 5, 0.025 weight % A alone) of the same compound?
**A.** The microbial growth percentage was 56%.

**Q.** And the microbial growth percentage ([2]; Example 5, 0.05 weight % A alone)?
**A.** The microbial growth percentage was 39%.

**Q.** What about the microbial growth percentage ([2]; Example 5, 0.1 weight % A alone) of the same compound?
**A.** The microbial growth percentage was 17%.

**Q.** And the “% MIC of A alone” value [3]?
**A.** The value was 0.25%.

**Q.** What about the microbial growth percentage ([3]; 0.0625 weight % A alone) of the same compound?
**A.** The microbial growth percentage was 85%.

**Q.** And the microbial growth percentage ([3]; 0.125 weight % A alone)?
**A.** The microbial growth percentage was 43%.

**Q.** What about the microbial growth percentage ([3]; 0.25 weight % A alone) of the same compound?
**A.** The microbial growth percentage was 4%.

**Q.** Which microbial growth percentage ([2]; Example 2, 0.00125 weight % B2 alone) does the source give for `Cc1cc(CC(C)CC(C)(C)C)n(O)c(=O)c1.NCCO` (centres unmarked) [B2, piroctone olamine, reference compound] here?
**A.** The microbial growth percentage was 35%.

**Q.** What about the microbial growth percentage ([2]; Example 2, 0.0025 weight % B2 alone) of the same compound?
**A.** The microbial growth percentage was 0%.

**Q.** With `O=C1C(N(CO)C(=O)NCO)N(CO)C(=O)N1CO` (centres unmarked) [B3, 1-[1,3-bis(hydroxymethyl)-2,5-dioxoimidazolidin-4-yl]-1,3-bis(hydroxymethyl)urea] as the compound, how does the “% MIC of B3 alone” value ([2]; Example 3) read?
**A.** The value was 0.125%.

**Q.** What about the microbial growth percentage ([2]; Example 3, 0.0625 weight % B3 alone) of the same compound?
**A.** Its microbial growth percentage is 55%.

**Q.** What about the microbial growth percentage ([2]; Example 3, 0.125 weight % B3 alone) of the same compound?
**A.** Its microbial growth percentage is 10%.

**Q.** Which “% MIC of B4 alone” value ([2]; Example 4) does the source give for `N=C(N)c1ccc(OCCCCCCOc2ccc(C(=N)N)cc2)cc1` [B4, hexamidine diisethionate, reference compound] here?
**A.** The value was 0.005%.

**Q.** What about the microbial growth percentage ([2]; Example 4, 0.00125 weight % B4 alone) of the same compound?
**A.** Its microbial growth percentage is 78%.

**Q.** And the microbial growth percentage ([2]; Example 4, 0.0025 weight % B4 alone)?
**A.** The microbial growth percentage was 59%.

**Q.** And the microbial growth percentage ([2]; Example 4, 0.005 weight % B4 alone)?
**A.** Its microbial growth percentage is 3%.
